# Experimental data: patent publication US20230148450A9, “BICYCLIC HETEROARYL COMPOUNDS AND USES THEREOF” (Revolution Medicines, Inc., priority 2019, published 2023)
# How the values were obtained:
# [1] = biological target: T1, SOS1 catalytic domain (residues 564-1049) (Homo sapiens, UniProt Q07889); assay: Binding affinity to SOS1 using Surface Plasmon Resonance (SPR); conditions: avi-tagged SOS1 catalytic domain immobilized on sensor chip; read-out: SOS1 SPR Equilibrium Kd
# T1 construct: SOS1 catalytic domain (residues 564-1049) immobilized on a sensor chip
# T1 sequence (Q07889 564-1049): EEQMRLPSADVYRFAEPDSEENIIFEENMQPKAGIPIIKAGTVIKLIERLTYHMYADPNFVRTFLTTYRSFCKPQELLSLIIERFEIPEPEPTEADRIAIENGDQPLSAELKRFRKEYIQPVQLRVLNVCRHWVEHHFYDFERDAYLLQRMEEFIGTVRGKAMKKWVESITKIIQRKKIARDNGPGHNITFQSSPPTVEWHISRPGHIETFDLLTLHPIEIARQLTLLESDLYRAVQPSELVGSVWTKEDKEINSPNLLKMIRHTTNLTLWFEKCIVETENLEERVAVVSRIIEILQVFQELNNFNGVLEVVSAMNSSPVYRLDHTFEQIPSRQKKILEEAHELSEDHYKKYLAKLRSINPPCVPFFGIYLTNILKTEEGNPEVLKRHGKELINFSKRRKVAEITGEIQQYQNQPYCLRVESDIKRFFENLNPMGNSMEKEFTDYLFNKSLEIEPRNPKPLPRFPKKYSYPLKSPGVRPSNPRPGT
# Description: Potency Assay: Measurement of the Binding Affinity of Compounds of the Invention to SOS! using Surface Plasmon Resonance (SPR)
# The purpose of the SPR assay was to measure the direct binding of compounds to SOS1 catalytic domain (residues 564-1049) immobilized on a sensor chip. Data was reported as equilibrium dissociation constant (Kd) values.
# Using a GE Biacore 8K SPR instrument, avi-tagged SOS1 catalytic domain protein was immobilized to a level of approximately 6000 response units (RU) on a streptavidin-coated SPR sensor chip in assay buffer containing 0.01 M HEPES, 0.15 M NaCl and 0.05% v/v Surfactant P20. In assay buffer containing 2% DMSO, concentration series of test compounds were generated spanning 5 μM to 4.9 nM over ten 2-fold dilutions. For each test compound, a separate 0 μM sample was generated for use during subsequent double reference subtraction. Serially for each test compound, individual dilution samples were flowed over the immobilized SOS1 protein at a flow rate of 50 μL/minute to monitor the association with SOS1. Dissociation of bound test compound from the SOS1 protein was immediately monitored by flowing assay buffer over the sensor surface and monitoring the decrease in binding signal back to the baseline level seen in the absence of compound. This was repeated for all compound dilutions in each series. The binding level response for each test compound concentration was noted immediately prior to the end of the association phase, and a secondary plot generated showing binding response level versus test compound concentration generated for each compound dilution series.
# [2] = biological target: T2, SOS1 nucleotide exchange of KRAS (catalytic domain of SOS1, residues 564-1049; wild-type KRAS) (Homo sapiens, UniProt Q07889); assay: Mode of Action Assay: Inhibition of SOS1 Nucleotide Exchange Activity (TR-FRET); assay type: biochemical; conditions: TR-FRET signal
# T2 construct: tagless catalytic domain of SOS1 (residues 564-1049)
# T2 sequence (Q07889 564-1049): T1 sequence (Q07889 564-1049)
# Procedure: The purpose of this assay was to characterize the inhibitory activity of compounds on SOS1 nucleotide exchange of KRAS. Data was reported as IC50 values based on the TR-FRET signal.
# Note—the following protocol describes a procedure for monitoring the inhibition of SOS1 nucleotide exchange activity of wild-type KRAS in response to a compound of the invention. Other KRAS mutants and RAS isoforms maybe employed.
# In assay buffer containing 20 mM HEPES, pH 7.5, 150 mM NaCl, 5 mM MgCl2, 0.05% Tween-20, 0.1% BSA, 1 mM DTT, concentration series of test compounds were generated spanning 100 μM to 1.7 nM over eleven 3-fold serial dilutions in a 384-well assay plate at a volume of 20 μL. The purified tagless catalytic domain of SOS1 (residues 564-1049) was first diluted in assay buffer at a concentration of 100 nM, and then 20 μL of the SOS1 containing solution was directly dispensed into compound plates. The SOS1/compound mixture was incubated at room temperature with constant mixing on an orbital shaker for 20 minutes to allow the reaction to reach equilibrium. A KRAS mixture was prepared by diluting 66.7 nM avi-tagged KRAS (residue 1-169), 3.33 nM Streptavidin-Tb and 333 nM EDA-GTP-DY-647P1 in assay buffer. This mixture was prepared immediately before addition to the SOS1/compound mixture to prevent intrinsic nucleotide exchange. Then 5 μL of the pre-incubated SOS1/compound mixture and 7.5 μL of the KRAS mixture were added sequentially in a 384-well low volume black round bottom plate and incubated at room temperature with constant shaking for 30 minutes. Time-resolved fluorescence was measured on a PerkinElmer Envision plate reader. DMSO and 10 μM of compound (i) were used as negative and positive controls, respectively.
# Three replicates were performed for each compound. Data were normalized by the following: (Positive control—Sample signal)/(Positive control—negative control)*100. The data were fit using a four-parameter logistic fit.
# [3] = test system: cellular pERK in PC-9 cells (EGFR Ex19Del); assay: Potency Assay: pERK; assay type: cell-based; conditions: Homo sapiens; PC-9 cells (EGFR Ex19Del), 1 hour incubation, AlphaLISA p-ERK1/2; read-out: SOS1 pERK IC50
# Description: The purpose of this assay is to measure the ability of test compounds to inhibit SOS1 function in cells. SOS1 activates RAS proteins by catalyzing the conversion of […] to […] in response to receptor tyrosine kinase activation. Activation of RAS induces a sequence of cellular signaling events that results in increased phosphorylation of ERK at […] (pERK). The procedure described below measures the level of cellular pERK in response to test compounds in PC-9 cells (EGFR Ex[…]). PC-9 cells were grown and maintained using media and procedures recommended by the ATCC. On the day prior to compound addition, cells were plated in 384-well cell culture plates (40 μL/well) and grown overnight in a 37° C., 5% CO2 incubator. Test compounds were prepared in 10, 3-fold dilutions in DMSO, with a top concentration of 10 mM. On the day of the assay, 40 nL of test compound was added to each well of cell culture plate using an Echo550 liquid handler (LabCyte). Concentrations of test compound were tested in duplicate with highest test concentration being 10 μM. After compound addition, cells were incubated for 1 hour at 37° C., 5% CO2. Following incubation, culture medium was removed and cells were washed once with phosphate buffered saline. Cellular pERK level was determined using the AlphaLISA SureFire Ultra p-ERK1/2 Assay Kit (PerkinElmer). Cells were lysed in 25 μL lysis buffer, with shaking at 600 RPM at room temperature for 15 minutes. Lysate (10 μL) was transferred to a 384-well Opti-plate (PerkinElmer) and 5 μL acceptor mix was added. The plate was centrifuged at 1000 RPM for 1 minute, and incubated in the dark for 2 hours. Following this incubation, 5 μL of donor mix was added, the plate was sealed and centrifuged at 1000 RPM for 1 minute, and the mixture was incubated for 2 hours at room temperature. Signal was read on an Envision plate reader (PerkinElmer) using standard AlphaLISA settings. Analysis of raw data was carried out in Excel (Microsoft) and Prism (GraphPad). Signal was plotted vs. the decadal logarithm of compound concentration, and IC50 was determined by fitting a 4-parameter sigmoidal concentration response model.
compound,measurement,setting,value
C[C@@H](Nc1nccc2nc(C(=O)N3CC4(C3)CN(C3COC3)C4)cn12)c1cccc(C(F)F)c1F [Example 88],Kd,[1],≤ 400 nM
same,IC50,[2],< 1000 nM
same,IC50,[3],< 1000 nM
"C[C@@H](Nc1nc(Cl)nc2[nH]c(C(=O)N3CCOCC3)nc12)c1cccc(C(F)(F)CO)c1 [Example 73, (R)-(2-chloro-6-((1-(3-(1,1-difluoro-2-hydroxyethyl)phenyl)ethyl)amino)-9H-purin-8-yl)(morpholino)methanone]",Kd,[1],≤ 400 nM
same,IC50,[2],< 1000 nM
same,IC50,[3],> 1000 nM
C[C@@H](Nc1nc(Cl)nn2cc(C(=O)N3CC4(CN(C)C4)C3)cc12)c1cccc(C(F)F)c1F [Example 99],Kd,[1],≤ 400 nM
same,IC50,[2],< 1000 nM
same,IC50,[3],< 1000 nM
"C[C@@H](Nc1nc(Cl)nc2c1cc(C1=CCNCC1)n2C)c1cc(N)cc(C(F)(F)F)c1 [Example 39, N-[(1R)-1-[3-amino-5-(trifluoromethyl)phenyl]ethyl]-2-chloro-7-methyl-6-(1,2,3,6-tetrahydropyridin-4-yl)pyrrolo[2,3-d]pyrimidin-4-amine]",Kd,[1],≤ 400 nM
same,IC50,[2],> 1000 nM
same,IC50,[3],> 1000 nM
C[C@@H](Nc1ncnn2cc(C(=O)N3CCN(C)CC3)cc12)c1cccc(C(F)F)c1F [Example 69],Kd,[1],≤ 400 nM
same,IC50,[2],< 1000 nM
same,IC50,[3],< 1000 nM
C[C@@H](Nc1nccc2nc(C(=O)N3CC4(CN(CC(F)(F)F)C4)C3)cn12)c1cccc(C(F)F)c1F [Example 91],Kd,[1],≤ 400 nM
same,IC50,[2],< 1000 nM
same,IC50,[3],< 1000 nM
C[C@@H](Nc1ncnn2cc(C(=O)N3CC4(CN(C)C4)C3)cc12)c1cccc(C(F)F)c1F [Example 70],Kd,[1],≤ 400 nM
same,IC50,[2],< 1000 nM
same,IC50,[3],< 1000 nM
"C[C@@H](Nc1nccn2nc(C3=CCNCC3)nc12)c1cc(N)cc(C(F)(F)F)c1 [Example 53, N-[(1R)-1-[3-amino-5-(trifluoromethyl)phenyl]ethyl]-2-(1,2,3,6-tetrahydropyridin-4-yl)-[1,2,4]triazolo[1,5-a]pyrazin-8-amine]",Kd,[1],≤ 400 nM
same,IC50,[2],> 1000 nM
same,IC50,[3],> 1000 nM
"Cc1nc(N[C@H](C)c2cc(N)cc(C(F)(F)F)c2)c2cc(C(=O)N3CCOCC3)cn2n1 [Example 41, [4-[[(1R)-1-[3-amino-5-(trifluoromethyl)phenyl]ethyl]amino]-2-methyl-pyrrolo[2,1-f][1,2,4]triazin-6-yl]morpholino-methanone]",Kd,[1],≤ 400 nM
same,IC50,[2],< 1000 nM
same,IC50,[3],< 1000 nM
C[C@@H](Nc1ncnn2cc(C(=O)N3CC4(COC4)C3)cc12)c1cccc(C(F)F)c1F [Example 71],Kd,[1],≤ 400 nM
same,IC50,[2],< 1000 nM
same,IC50,[3],< 1000 nM
"CNCc1ccccc1-c1ccc(C(C)Nc2nc(C)nn3cc(C4=CCNCC4)cc23)s1 (stereo not drawn) [Example 40, 2-methyl-N-[1-[5-[2-(methylaminomethyl)phenyl]-2-thienyl]ethyl]-6-(1,2,3,6-tetrahydropyridin-4-yl)pyrrolo[2,1-f][1,2,4]triazin-4-amine]",Kd,[1],≤ 400 nM
same,IC50,[2],> 1000 nM
same,IC50,[3],> 1000 nM
CC(=O)N1CC2(C1)CN(C(=O)c1cn3c(N[C@H](C)c4cccc(C(F)F)c4F)nccc3n1)C2 [Example 89],Kd,[1],≤ 400 nM
same,IC50,[2],< 1000 nM
same,IC50,[3],< 1000 nM
C[C@@H](Nc1nc(Cl)cn2nc(C(=O)N3CCOCC3)cc12)c1cc(N)cc(C(F)(F)F)c1 [Example 74],Kd,[1],> 400 nM
same,IC50,[2],> 1000 nM
same,IC50,[3],< 1000 nM
"C[C@@H](Nc1nc(Cl)cn2cc(C(=O)N3CCOCC3)nc12)c1cc(N)cc(C(F)(F)F)c1 [Example 29, [8-[[(1R)-1-[3-amino-5-(trifluoromethyl)phenyl]ethyl]amino]-6-chloro-imidazo[1,2-a]pyrazin-2-yl]-morpholino-methanone]",Kd,[1],> 400 nM
same,IC50,[2],> 1000 nM
same,IC50,[3],> 1000 nM
C[C@@H](Nc1nc(Cl)nn2cc(C(=O)N3CC4(CN(C)C4)C3)cc12)c1cccc(C(F)(F)F)c1 [Example 97],Kd,[1],≤ 400 nM
same,IC50,[2],< 1000 nM
same,IC50,[3],< 1000 nM
C[C@@H](Nc1ncnn2cc(C(=O)N3CC4(C3)CN(C3COC3)C4)cc12)c1cccc(C(F)F)c1F [Example 72],Kd,[1],≤ 400 nM
same,IC50,[2],< 1000 nM
same,IC50,[3],< 1000 nM
C[C@@H](Nc1nccc2nc(C(=O)N3CCN(C4COC4)CC3)cn12)c1cccc(C(F)F)c1F [Example 87],Kd,[1],≤ 400 nM
same,IC50,[2],< 1000 nM
same,IC50,[3],> 1000 nM
"C[C@@H](Nc1ncnc2sc(C(=O)N3CCN(C4COC4)CC3)cc12)c1cccc(C(F)F)c1F [Example 84, (R)-(4-((1-(3-(difluoromethyl)-2-fluorophenyl)ethyl)amino)thieno[2,3-d]pyrimidin-6-yl)(4-(oxetan-3-yl)piperazin-1-yl)methanone]",Kd,[1],≤ 400 nM
same,IC50,[2],< 1000 nM
same,IC50,[3],< 1000 nM
Cc1cn2nc(C(=O)N3CCN(C4COC4)CC3)cc2c(N[C@H](C)c2cc(N)cc(C(F)(F)F)c2)n1 [Example 76],Kd,[1],≤ 400 nM
same,IC50,[2],< 1000 nM
same,IC50,[3],< 1000 nM
"C[C@@H](Nc1ncnn2cc(N3CCOCC3)cc12)c1cc(N)cc(C(F)(F)F)c1 [Example 47, N-[(1R)-1-[3-amino-5-(trifluoromethyl)phenyl]ethyl]-6-morpholino-pyrrolo[2,1-f][1,2,4]triazin-4-amine]",Kd,[1],> 400 nM
same,IC50,[2],> 1000 nM
same,IC50,[3],> 1000 nM
C[C@@H](Nc1nc(Cl)nn2cc(C(=O)N3CC4(COC4)C3)cc12)c1cccc(C(F)F)c1F [Example 100],Kd,[1],≤ 400 nM
same,IC50,[2],< 1000 nM
same,IC50,[3],< 1000 nM
